According to paper PMC5587286, “Direct versus indirect actions of ghrelin on hypothalamic NPY neurons” (PLoS ONE, 2017):

Experiments:
[1] = test system: NPY-GFP neurons in hypothalamic slices; type: cell-based, mice
[2] = test system: isolated SUR1-/- neurons; type: cell-based, mice
[3] = molecular target: growth hormone secretagogue receptor (mouse (endogenous in NPY-GFP neurons)) (UniProt Q99P50)
growth hormone secretagogue receptor (mouse (endogenous in NPY-GFP neurons)), sequence (Q99P50 whole entry): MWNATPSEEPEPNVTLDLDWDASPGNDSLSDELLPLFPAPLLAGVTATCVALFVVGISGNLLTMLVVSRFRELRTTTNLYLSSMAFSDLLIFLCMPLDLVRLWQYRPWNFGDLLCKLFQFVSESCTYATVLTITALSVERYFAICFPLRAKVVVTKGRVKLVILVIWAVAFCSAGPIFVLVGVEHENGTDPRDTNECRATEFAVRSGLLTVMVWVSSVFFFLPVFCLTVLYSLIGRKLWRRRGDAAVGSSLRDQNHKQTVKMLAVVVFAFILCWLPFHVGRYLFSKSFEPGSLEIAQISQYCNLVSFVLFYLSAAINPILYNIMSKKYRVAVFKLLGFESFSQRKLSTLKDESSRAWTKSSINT

`NC1=N[C@H](O)[C@H]2[C@H]3O[C@]4(O)O[C@@H]([C@@H](O)[C@@]2(N1)[C@@H]4O)[C@]3(O)CO` [TTX, tetrodotoxin] was tested, and the “effect on ghrelin-induced changes in MP and IR” value [1] was “reduces these ghrelin-induced changes in both MP and IR”.
For `CC1=NS(=O)(=O)c2cc(Cl)ccc2N1` [diazoxide], the “stimulation of an increase in [Ca2+]c” value ([2]; diazoxide 200 μM, neurons from SUR1-/- mice) was “not”.
For `CCCCCCCC(=O)OC[C@H](NC(=O)[C@H](CO)NC(=O)CN)C(=O)N[C@@H](Cc1ccccc1)C(=O)N[C@@H](CC(C)C)C(=O)N[C@@H](CO)C(=O)N1CCC[C@H]1C(=O)N[C@@H](CCC(=O)O)C(=O)N[C@@H](Cc1c[nH]cn1)C(=O)N[C@@H](CCC(N)=O)C(=O)N[C@@H](CCCNC(=N)N)C(=O)N[C@H](C(=O)N[C@@H](CCC(N)=O)C(=O)N[C@@H](CCC(N)=O)C(=O)N[C@@H](CCCNC(=N)N)C(=O)N[C@@H](CCCCN)C(=O)N[C@@H](CCC(=O)O)C(=O)N[C@@H](CO)C(=O)N[C@@H](CCCCN)C(=O)N[C@@H](CCCCN)C(=O)N1CCC[C@H]1C(=O)N1CCC[C@H]1C(=O)N[C@@H](C)C(=O)N[C@@H](CCCCN)C(=O)N[C@@H](CC(C)C)C(=O)N[C@@H](CCC(N)=O)C(=O)N1CCC[C@H]1C(=O)N[C@@H](CCCNC(=N)N)C(=O)O)C(C)C` [ghrelin], the “average IR decrease” value [1] was -108 ± 60 MΩ, the “ghrelin-induced changes in MP and IR in the presence of TTX” value [1] was “persistent, albeit diminished” and the “neurons depolarized due to decreases in IR” value [1] was ~ 70%. The “neurons depolarized with increases in IR” value [1] was 7/22, the “average ΔMP (MP +ghrelin minus MP w/o ghrelin)” value ([1]; SD) was 3.6 ± 1.7 mV and the “effect on [Ca2+]c” value [2] was “reversibly stimulated an increase in [Ca^2+]c in a subset of isolated SUR1^-/- neurons”.
`COc1ccc(Cl)cc1C(=O)NCCc1ccc(S(=O)(=O)NC(=O)NC2CCCCC2)cc1` [glibenclamide] was tested, and the “effect on ghrelin action” value ([2]; glibenclamide 1 μM, ghrelin 200 pM, neurons from SUR1-/- mice) was “no significant effect on ghrelin action”.
Acylated ghrelin (peptide) gave an EC50 of the rise of [Ca2+]c (fura-2) in isolated NPY-GFP neurons, from averages of the peak heights at each ghrelin concentration [3] of 110 pM.
